Results published in patent US7479385B2, “Sugar kinases with expanded substrate specificity and their use” (Wisconsin Alumni Research Foundation, priority 2003, dated 2009).
Read-outs that look alike come from different tables or passages of the source.

Experiments:
GalK mutant Y371H = GalK mutant Y371H (Escherichia coli, UniProt P0A6T3, Y371H); settings: DNS assay and thin layer chromatography
GalK variant Y371H = biological target: T1, GalK variant Y371H (Escherichia coli, UniProt P0A6T3, Y371H); assay: Preparative phosphorylation of L-altrose by GalK Y371H, conversion by DNS assay; type: biochemical, E. coli; settings: within four hours, 37° C., Y371H 150 μg mL^−1
T1 construct: His-tag (concluded from Ni-NTA purification and vector pET15b); made in house; host or cells: E. coli BL21-Gold (DE3), vector pET15b
T1 sequence (P0A6T3 whole entry Y371H): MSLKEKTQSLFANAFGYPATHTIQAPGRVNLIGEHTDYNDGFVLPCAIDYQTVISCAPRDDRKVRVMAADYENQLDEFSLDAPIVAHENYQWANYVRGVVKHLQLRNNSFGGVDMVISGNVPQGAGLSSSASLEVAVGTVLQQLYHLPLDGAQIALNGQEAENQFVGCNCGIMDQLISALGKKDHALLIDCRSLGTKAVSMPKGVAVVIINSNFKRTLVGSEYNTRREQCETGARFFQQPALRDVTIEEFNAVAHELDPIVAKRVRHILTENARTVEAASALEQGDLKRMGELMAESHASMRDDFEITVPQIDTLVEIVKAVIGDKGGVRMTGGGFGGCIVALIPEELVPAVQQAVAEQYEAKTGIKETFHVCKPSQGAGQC
Protocol: Preparative phosphorylation of L-altrose and product characterization. […] To this solution, ATP (125 mg, 0.23 mmol), MgCl2.6H2O (15.3 mg, 0.07 mmol) were added, the mixture incubated at 37° C. for 5 min, the reaction initiated via the addition of enzyme (Y371H) to a final concentration of 150 μg mL^−1 and reaction progress monitored by TLC. After completion, the mixture was diluted 5-fold in ddH2O and applied to a 200 mL anion exchange column (Q-Sepharose fast flow, Amersham, Piscataway, N.J.). The column was eluted with a gradient of 0-400 mM NaCl and the active fraction was collected and evaporated under reduced pressure. The crude product was desalted on a P-2 gel filtration column (The Nest Group, Southboro, Mass.) to give 16.1 mg of purified product (yield: 52%). [α]D=3.5° (c=1, H2O) ^1H NMR (D2O): 5.48 (dd, J=8.6, 1.8 Hz, 1H), 4.14 (dd, 5.3, 3.3 Hz, 1H), 3.99 (m, 1H), 3.98 (dd, J=4.3, 1.8 Hz, 1H), 3.91 (d, J=3.3, 1H), 3.89 (m, 1H), 3.84 (dd, J=12.1, 7.8 Hz, 1H); ^13C NMR (D2O): 94.10, 76.23, 70.70, 69.99, 65.68, 62.21; ^31P NMR (D2O): 3.77; MS: calculated for C6H13O9P 260.0, found m/z 259.0 [M−H]^−.
Confirmation of L-sugar conversion. […] To confirm the evolved enzyme retains regio- and stereoselectivity with L-sugar substrates, a representative L-sugar reaction product was further characterized. […]

wild-type E. coli GalK [1] = biological target: T2, wild-type E. coli GalK (Escherichia coli, UniProt P0A6T3); assay: Kinetics and substrate specificity of wild-type GalK with sugar substrates (DNS assay), Table 1; type: biochemical
T2 construct: made in house
T2 sequence (P0A6T3 1-382): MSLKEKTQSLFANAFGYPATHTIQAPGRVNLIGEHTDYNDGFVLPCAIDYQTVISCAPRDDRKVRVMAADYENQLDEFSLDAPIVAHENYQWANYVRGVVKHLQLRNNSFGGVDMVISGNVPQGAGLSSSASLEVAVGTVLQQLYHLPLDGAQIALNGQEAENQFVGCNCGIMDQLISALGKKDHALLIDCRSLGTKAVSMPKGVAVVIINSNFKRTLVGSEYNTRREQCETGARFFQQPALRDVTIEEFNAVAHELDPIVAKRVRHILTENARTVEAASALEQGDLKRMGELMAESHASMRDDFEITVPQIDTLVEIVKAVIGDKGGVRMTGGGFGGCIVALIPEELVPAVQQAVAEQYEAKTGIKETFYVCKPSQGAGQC

wild-type E. coli GalK [2] = biological target: T2, wild-type E. coli GalK; type: biochemical
Excerpt: (§1) Characterization of GalK Mutants. […] The mutant enzymes were purified by using metal affinity chromatography on Ni-NTA Spin Columns (QIAGEN, Valencia, Calif.) and fractions containing homogenous protein were collected, concentrated and quantified using the Bradford protein assay. The DNS assay was used to assess the substrate specificity of the purified GalK mutants as previously described. […] For each sugar, the DNS assay was used to monitor the reaction progress and control assays in the absence of enzyme or sugar were performed in parallel. Standard curves for each sugar were prepared as described. To assess general percent conversion, each reaction contained 15.0 (M enzyme, 8 mM sugar, 14 mM ATP and 3.5 mM MgCl2. The reactions were incubated at 37° C. for 3 hrs after which the reactions were quenched with MeOH, centrifuged (10 min, 12,000 rpm) and then the supernatant (diluted 20-fold) submitted for LC-MS and MS/MS analysis. For monosaccharide kinetic data determination, the sugar concentration was varied over a range of 1-8 mM, under saturating ATP (14 mM). Reaction progress was assessed via the DNS assay, wherein a change in absorbance at 575 nm as a function of time was obtained and the initial velocity determined by the slope of the linear phase in the progress curve. The kinetic data was analyzed using Enzyme Kinetics Module software (SSPS, Inc., Chicago, Ill.) as previously described.
(§2) Characterization of Engineered E. coli GalK Mutants.

[3] = biological target: T3, E. coli GalK Y371H mutant (Escherichia coli, UniProt P0A6T3, Y371H); type: biochemical
T3 construct: His-tag (concluded from Ni-NTA purification and vector pET15b); made in house; host or cells: E. coli BL21-Gold (DE3), vector pET15b
T3 sequence (P0A6T3 whole entry Y371H): as the sequence (P0A6T3 whole entry Y371H) above
Excerpt: as §1, §2

[4] = biological target: T4, E. coli GalK M173L mutant (Escherichia coli, UniProt P0A6T3, M173L); assay: Substrate screen / percent conversion of 45 sugars, M173L; type: biochemical
T4 construct: His-tag (concluded from Ni-NTA purification and vector pET15b); made in house
T4 sequence (P0A6T3 whole entry M173L): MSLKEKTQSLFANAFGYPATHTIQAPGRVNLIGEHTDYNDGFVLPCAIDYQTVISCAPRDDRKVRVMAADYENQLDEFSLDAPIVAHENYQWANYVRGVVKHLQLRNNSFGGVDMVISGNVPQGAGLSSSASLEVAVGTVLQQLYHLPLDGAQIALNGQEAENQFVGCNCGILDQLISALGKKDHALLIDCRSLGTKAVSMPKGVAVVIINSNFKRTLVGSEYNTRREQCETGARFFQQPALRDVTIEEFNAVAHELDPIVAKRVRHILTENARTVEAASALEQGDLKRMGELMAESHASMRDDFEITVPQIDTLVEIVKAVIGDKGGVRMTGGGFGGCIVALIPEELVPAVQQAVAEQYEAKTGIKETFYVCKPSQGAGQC
Excerpt: as §1, §2

Y371H-M173L GalK = biological target: T5, Y371H-M173L GalK (Escherichia coli, UniProt P0A6T3, M173L/Y371H); assay: In vivo conversion of fed unnatural sugars to sugar-1-phosphates in E. coli host overexpressing GalK double mutant; type: cell-based; settings: sugar fed at 4 mM to E. coli overexpressing Y371H-M173L GalK, 16° C., 16 hr; fluorescence HPLC after labelling with 50
T5 construct: His-tag (concluded: same plasmid pGalKMLYH in pET-15b whose product was purified on Ni-NTA); expressed in transfected cells; host or cells: E. coli host carrying pGalKMLYH (pET-15b), IPTG-induced at 16 °C
T5 sequence (P0A6T3 whole entry M173L/Y371H): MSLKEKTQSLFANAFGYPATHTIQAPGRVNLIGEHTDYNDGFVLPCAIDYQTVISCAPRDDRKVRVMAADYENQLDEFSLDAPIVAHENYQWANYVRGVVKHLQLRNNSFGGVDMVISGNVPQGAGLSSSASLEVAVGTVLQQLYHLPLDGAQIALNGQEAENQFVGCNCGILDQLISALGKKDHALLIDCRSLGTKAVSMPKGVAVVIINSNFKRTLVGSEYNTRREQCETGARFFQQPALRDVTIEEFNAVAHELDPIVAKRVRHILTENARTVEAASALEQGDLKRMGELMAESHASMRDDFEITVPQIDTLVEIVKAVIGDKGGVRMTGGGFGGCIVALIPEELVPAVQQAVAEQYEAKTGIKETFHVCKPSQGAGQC
Excerpt: FIG. 9. In vivo GalK-catalyzed sugar-1-phosphate production. (a) Experimental overview using 6-azido-6-deoxy-D-galactose (22) as an example: 22 is fed to an E. coli host expressing the M173L-Y371H GalK double mutant and the reactants and products subsequently labeled using a […] with the fluorescent tag 50. (b) HPLC chromatographs of bioconversions: i)22 with Y371H-M173L GalK; ii)46 with Y371H-M173L GalK; iii) 22 with wild-type GalK. MS: 50, calculated for C20H25N3O3S 387.2, found m/z 386.1 [M−H]^−; 51, calculated for C26H37N6O11PS 672.2, found m/z 671.2 [M−H]^−; 52, calculated for C26H36N6O8S 592.2, found m/z 591.2 [M−H]
In Vivo Conversion Analysis. […] The reaction mixture was subsequently centrifuged to remove CuI and the supernatant (diluted 2-fold) directly analyzed by HPLC and LC-MS calculated for C26H37N6O11PS 672.20, found m/z […] 671.20.
To assess the Y371H-M173L GalK-catalyzed in vivo production of unnatural sugar-1-phosphates (FIG. 9a), the unnatural sugars (22 or 46, 4 mM final concentration) were fed to an E. coli host (40 mL culture) which overexpressed the promiscuous GalK. After a designated time, the extracts were analyzed via the specific attachment of a fluorescent tag (50), to both starting material (22 or 46) and desired sugar-1-phosphate products, using 1,3-dipolar cycloaddition. […]

[5] = biological target: T6, E. coli double M173L-Y371H mutant GalK (Escherichia coli, UniProt P0A6T3, M173L/Y371H); assay: Substrate screen / percent conversion of 45 sugars, M173L-Y371H; type: biochemical
T6 construct: His-tag (concluded from Ni-NTA purification and vector pET15b); made in house
T6 sequence (P0A6T3 whole entry M173L/Y371H): as above
Excerpt: as §1, with “The reactions were incubated at 37° C. for 3 hrs after which the reactions were quenched with MeOH, centrifuged (10 min, 12,000 rpm) and then the supernatant (diluted 20-fold) submitted for LC-MS and MS/MS analysis.” left out
as §2

L. lactis wild-type GalK = biological target: T7, L. lactis wild-type GalK (Lactococcus lactis subsp. lactis, UniProt Q9R7D7); settings: in vitro, cited from earlier work
T7 sequence (Q9R7D7 1-399): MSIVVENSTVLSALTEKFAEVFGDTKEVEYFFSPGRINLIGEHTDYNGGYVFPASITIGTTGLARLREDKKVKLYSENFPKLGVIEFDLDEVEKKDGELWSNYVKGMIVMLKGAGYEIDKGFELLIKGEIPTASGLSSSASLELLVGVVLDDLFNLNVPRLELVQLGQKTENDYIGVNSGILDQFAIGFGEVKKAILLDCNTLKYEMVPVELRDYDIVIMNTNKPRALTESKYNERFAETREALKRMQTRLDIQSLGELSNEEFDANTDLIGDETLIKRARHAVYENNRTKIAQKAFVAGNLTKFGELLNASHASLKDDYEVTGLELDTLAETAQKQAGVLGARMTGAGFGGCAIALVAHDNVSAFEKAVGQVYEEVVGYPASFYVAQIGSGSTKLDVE

L. lactis GalK Y385H = L. lactis GalK Y385H (Lactococcus lactis subsp. lactis, UniProt Q9R7D7, Y385H); settings: cited from earlier work
Chain of L. lactis GalK Y385H (Q9R7D7 whole entry Y385H): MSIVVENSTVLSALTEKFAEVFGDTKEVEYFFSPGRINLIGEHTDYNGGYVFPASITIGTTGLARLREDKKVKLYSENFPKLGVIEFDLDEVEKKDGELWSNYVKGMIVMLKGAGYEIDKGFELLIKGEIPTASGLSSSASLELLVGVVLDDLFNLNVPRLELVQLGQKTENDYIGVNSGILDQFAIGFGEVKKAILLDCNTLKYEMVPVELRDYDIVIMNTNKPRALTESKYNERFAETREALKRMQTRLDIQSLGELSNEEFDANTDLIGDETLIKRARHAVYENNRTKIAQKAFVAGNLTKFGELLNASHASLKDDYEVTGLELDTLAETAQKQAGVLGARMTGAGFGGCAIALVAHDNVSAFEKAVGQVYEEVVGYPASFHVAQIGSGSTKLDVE

[6] = biological target: T8, E. coli GalK mutant M173L (Escherichia coli, UniProt P0A6T3, M173L); assay: Steady-state kinetic profiling (DNS assay), Table 2, M173L; type: biochemical; settings: sugar 1-8 mM, saturating ATP (14 mM)
T8 construct: His-tag (concluded from Ni-NTA purification and vector pET15b); made in house
T8 sequence (P0A6T3 whole entry M173L): as the sequence (P0A6T3 whole entry M173L) above
Excerpt: as §1, with “The kinetic data was analyzed using Enzyme Kinetics Module software (SSPS, Inc., Chicago, Ill.) as previously described.” left out

[7] = biological target: T9, E. coli GalK double mutant M173L-Y371H (Escherichia coli, UniProt P0A6T3, M173L/Y371H); assay: Steady-state kinetic profiling (DNS assay), Table 2, M173L-Y371H; type: biochemical; settings: sugar 1-8 mM, saturating ATP (14 mM)
T9 construct: His-tag (concluded from Ni-NTA purification and vector pET15b); made in house
T9 sequence (P0A6T3 whole entry M173L/Y371H): as the sequence (P0A6T3 whole entry M173L/Y371H) above
Excerpt: as §1, with “The kinetic data was analyzed using Enzyme Kinetics Module software (SSPS, Inc., Chicago, Ill.) as previously described.” left out

Chain of GalK mutant Y371H (P0A6T3 whole entry Y371H): as the sequence (P0A6T3 whole entry Y371H) above

O=C[C@H](O)[C@@H](O)[C@@H](O)[C@@H](O)CO [L-Alt (16), L-altrose]
kinase activity / turnover by GalK Y371H (in words) (GalK mutant Y371H): substantial degree of kinase activity | conversion of L-altrose (GalK variant Y371H): 91% | substrate of wild-type GalK (in words) (wild-type E. coli GalK [1]): failed as wild-type GalK substrates

[N-]=[N+]=NC[C@@H](O)[C@H](O)[C@H](O)[C@@H](O)C=O [6-azido-6-deoxy-D-galactose (22), 6-azido-6-deoxy-D-galactose]
substrate of wild-type E. coli GalK (in words) (wild-type E. coli GalK [2]): not a substrates | substrate of Y371H (in words) [3]: failed | substrate of M173L (in words) [4]: failed | in vivo conversion to sugar-1-phosphate (Y371H-M173L GalK): ~69% | kinase activity of M173L-Y371H double mutant (in words) [5]: accept | in vitro yield (conversion) quoted for comparison with in vivo ([5]; in vitro): ~50% | in vitro conversion by M173L-Y371H ([5]; in vitro, in 2 hrs): > 50%

O=C[C@H](O)[C@@H](O)[C@H](O)[C@H](O)CO [D-Glc (27), D-glucose]
conversion / activity with L. lactis wild-type GalK (in words) (L. lactis wild-type GalK): weak activity | conversion / activity with L. lactis wild-type GalK (in words) (L. lactis wild-type GalK; listed as D-glucose (27)): in vitro conversion | conversion by M173L ([4]; in 3 hr, 37° C., 8 mM sugar, 14 mM ATP, 3.5 mM MgCl2, 15.0 μM enzyme): 20% | activity with L. lactis GalK Y385H (in words) (L. lactis GalK Y385H): weak activity | Km ([6]; read-out: Km, M173L (D-Glc column)): 2.6 mM | Vmax, M173L [6]: 0.02 (±0.01) mM min^−1 | Km ([7]; read-out: Km, M173L-Y371H (D-Glc column)): 4 mM | Vmax, M173L-Y371H [7]: 0.02 (±0.01) mM min^−1
